Results reported in patent US6420405B2, “Pharmaceutical composition for angiotensin II-mediated diseases” (Takeda Chemical Industries, Ltd., priority 1993, dated 2002).

Experiments:
Format in all cases: in vivo, rat
[1] = system: Spontaneously Hypertensive Rats (SHR); experiment: Antihypertensive activity in SHR by co-administration with a diuretic drug (Test Example 3, compound 2, tail cuff); details: for blood pressure, 1 week / blood pressure, 2 weeks / blood pressure, 1 day: 5 hr after administration; for blood pressure, 1 week / blood pressure, 2 weeks / blood pressure, 1 day / blood pressure, Before admin.: male SHR; for blood pressure, Before admin.: before administration (baseline); for antihypertensive action: SHR
Method: Method: Male SHR of 20 week old were divided into 6 groups (five animals in one group). The respective groups were administered orally with the compound 2 (0.1 or 1 mg/kg,p.o.) or HCT (10 mg/kg, p.o.) alone or both drugs simultaneously once a day for two weeks. On the first, 7th and 14th day at 5 hr after the administration, blood pressure of each test animal was measured by the tail cuff method under unanesthesia.

[2] = system: Spontaneously Hypertensive Rats (SHR); experiment: Antihypertensive activity in SHR by co-administration with a diuretic drug (Test Example 1, tail cuff); details: for blood pressure, 1 week / blood pressure, 2 weeks / blood pressure, 1 day: 5 hr after administration; for blood pressure, 1 week / blood pressure, 2 weeks / blood pressure, 1 day / blood pressure, Before admin.: male SHR; for blood pressure, Before admin.: before administration (baseline); for antihypertensive action: SHR
Method: Antihypertensive Activity in Spontaneously Hypertensive Rats (SHR) by the Co-administration with a Diuretic Drug Method: […] The respective groups were administered orally with the compound 1(0.1 or 1 mg/kg,p.o.) or HCT (10 mg/kg, p.o.) alone or both drugs simultaneously once a day for two weeks.

[3] = system: Spontaneously Hypertensive Rats (SHR); experiment: Antihypertensive activity in SHR by co-administration with a calcium antagonistic drug (Test Example 2, tail cuff); details: for blood pressure, 1 week / blood pressure, 2 weeks / blood pressure, 1 day: 5 hr after administration; for blood pressure, 1 week / blood pressure, 2 weeks / blood pressure, 1 day / blood pressure, Before admin.: male SHR; for blood pressure, Before admin.: before administration (baseline)
Method: Antihypertensive Activity in Spontaneously Hypertensive Rats (SHR) by the Co-administration with a Calcium Antagonistic Drug
Method: Male SHR of 20 week old were divided into six groups (five animals per group). The respective groups were administered orally with the compound 1 (0.1 or 1 mg/kg, p.o.) or MDP (3 mg/kg, p.o.) alone or with a mixture of them once a day for two weeks. On the first, 7th and 14th day at 5 hr after the administration, blood pressure of each test animal was measured by the tail cuff method under unanesthesia.

## CCOc1nc2cccc(C(=O)O)c2n1Cc1ccc(-c2ccccc2-c2nc(=O)o[nH]2)cc1 [Cpd. 2, 2-ethoxy-1-[[2′-(2,5-dihydro-5-oxo-1,2,4-oxadiazole-3-yl)biphenyl-4-yl]methyl]-1H-benzimidazole-7-carboxylic acid]
[1]; Cpd. 2 0.1 mg/kg/day p.o.
  blood pressure, 1 week: 182 ± 6 mmHg
  blood pressure, 2 weeks: 191 ± 8 mmHg
  blood pressure, 1 day: 187 ± 6 mmHg
  blood pressure, Before admin.: 215 ± 5 mmHg
[1]; Cpd. 2 1 mg/kg/day p.o.
  blood pressure, 1 week: 161 ± 4 mmHg
  blood pressure, 2 weeks: 165 ± 3 mmHg
  blood pressure, 1 day: 175 ± 5 mmHg
  blood pressure, Before admin.: 219 ± 7 mmHg
[1]; compound 2 alone, 0.1 and 1 mg/kg/day
  antihypertensive action: dose dependent antihypertensive action

## NS(=O)(=O)c1cc2c(cc1Cl)NCNS2(=O)=O [HCT, hydrochlorothiazide, reference compound]
[2]; HCT 10 mg/kg/day p.o.
  blood pressure, 1 week: 177 ± 3 mmHg
  blood pressure, 2 weeks: 181 ± 2 mmHg
  blood pressure, 1 day: 178 ± 3 mmHg
  blood pressure, Before admin.: 186 ± 3 mmHg
[2]; HCT alone, 10 mg/kg/day, p.o.
  antihypertensive action: did not show antihypertensive action
[1]; HCT 10 mg/kg/day p.o.
  blood pressure, 1 week: 190 ± 5 mmHg
  blood pressure, 2 weeks: 195 ± 3 mmHg
  blood pressure, 1 day: 188 ± 5 mmHg
  blood pressure, Before admin.: 206 ± 5 mmHg
[1]; HCT alone, 10 mg/kg/day, p.o.
  antihypertensive action: did not show antihypertensive action

## CCOc1nc2cccc(C(=O)OC(C)OC(=O)OC3CCCCC3)c2n1Cc1ccc(-c2ccccc2-c2nnn[nH]2)cc1 (racemic) [Cpd. 1, (±)-1-(cyclohexyloxycarbonyloxy)ethyl 2-ethoxy-1-[[2′-(1H-tetrazol-5-yl)biphenyl-4-yl]methyl]-1H-benzimidazole-7-carboxylate]
[2]; Cpd. 1 0.1 mg/kg/day p.o.
  blood pressure, 1 week: 155 ± 3 mmHg
  blood pressure, 2 weeks: 162 ± 3 mmHg
  blood pressure, 1 day: 161 ± 5 mmHg
  blood pressure, Before admin.: 183 ± 2 mmHg
[2]; Cpd. 1 1 mg/kg/day p.o.
  blood pressure, 1 week: 138 ± 2 mmHg
  blood pressure, 2 weeks: 135 ± 3 mmHg
  blood pressure, 1 day: 153 ± 5 mmHg
  blood pressure, Before admin.: 186 ± 2 mmHg
[2]; compound 1 alone, 0.1 and 1 mg/kg/day
  antihypertensive action: dose dependent antihypertensive action
[3]; Cpd. 1 0.1 mg/kg/day p.o.
  blood pressure, 1 week: 158 ± 4 mmHg
  blood pressure, 2 weeks: 160 ± 4 mmHg
  blood pressure, 1 day: 157 ± 2 mmHg
  blood pressure, Before admin.: 190 ± 2 mmHg
[3]; Cpd. 1 1 mg/kg/day p.o.
  blood pressure, 1 week: 131 ± 13 mmHg
  blood pressure, 2 weeks: 142 ± 4 mmHg
  blood pressure, 1 day: 148 ± 3 mmHg
  blood pressure, Before admin.: 196 ± 3 mmHg
[3]; compound 1 alone, 0.1 and 1 mg/kg/day, SHR
  antihypertensive effect: dose dependent antihypertensive effect

## COC(=O)C1=C(C)NC(C)=C(C(=O)OCCN2CCN(C(c3ccccc3)c3ccccc3)CC2)C1c1cccc([N+](=O)[O-])c1 (centres unmarked) [MDP, manidipine, reference compound]
[3]; MDP 3 mg/kg/day p.o.
  blood pressure, 1 week: 132 ± 5 mmHg
  blood pressure, 2 weeks: 136 ± 7 mmHg
  blood pressure, 1 day: 157 ± 2 mmHg
  blood pressure, Before admin.: 190 ± 5 mmHg
